Where “and” joins values, the source holds several entries; their conditions need not be identical. Equal entries are not always repeated. Marks after values point to notes of the source that are not given here.
Assays:
D. cristata = experiment: Sticky trap attraction in prairie habitat, Trelease Woods (Example 2); format: in vivo, Diabrotica cristata; details: 100 mg per trap, n = 4
Description: (§1) The candidate lures in all experiments were purchased commercially and exceeded 98% purity. The test chemicals were applied by capillary micropipettes to cotton dental wicks which were attached to the tops of 1.0 liter cylindrical paper cartons covered with TangleTrap™ (Tanglefoot Co., Grand Rapids, Mich.). The sticky trap techniques used were as described in Example 1. Cinnamyl alcohol and para-methoxycinnamaldehyde, which are solids, were dissolved in glass-distilled acetone prior to dosing the cotton wicks. […]. Control traps had untreated cotton wicks. Four replicates of treated and untreated traps were randomly positioned 10 meters apart on top of 1 m high posts along the border of a eight foot wide strip cut through the middle of a 4.05 ha relict prairie at Trelease Woods (ca. two miles northeast of Urbana, Ill.). The field consisted primarily of Andropogon gerardii Vitman (big bluestem) and a variety of composites. The tests were conducted in mid-August of two years and were timed to coincide with the presence of D. cristata and D. barberi adults in the flower heads of Canada thistle (Carduus arvensis Robson). In the second year, several new attractants of D. v. virgifera and D. barberi were tested in Trelease Woods and along the edge of a 0.8 ha field of hybrid corn located at the Pomology South Farms, Urbana, Ill. Attraction of Diabrotica species to the various lures was measured by the mean number of beetles caught after 24-h. On one date in late August of the first year, D. cristata and D. barberi were removed from the traps and sexed in the laboratory. The significance of treatments in all tests was determined by an analysis of variance and the individual means were separated by Duncan's multiple range test (Statistical Package for Social Science, Nie, et al., SPSS: statistical package for the social sciences, 2nd ed. McGraw-Hill, New York (1975). Data were logarithmically transformed for statistical analysis and the means and standard deviations are presented for the untransformed data.

D. v. virgifera = experiment: as above; format: in vivo, Diabrotica virgifera virgifera; details: 100 mg per trap, n = 4
Description: as §1

[1] = system: western corn rootworm (WCR) adults; experiment: Sticky trap attraction in sweet corn plots (Example 1); format: in vivo, Diabrotica virgifera virgifera; details: August 4, second year, each compound 20 mg per trap
Description: (§2) The attraction of Diabrotica species to single-component and multicomponent lures was evaluated in corn fields. The field experiments on attraction of SCR and WCR adults were conducted in 0.405-ha (1-acre) plots of “Illini Xtra Sweet” corn grown on the University of Illinois South Farms at Urbana, Ill., over a two year period. Most of the tests were conducted in August to correspond with the peak silk-feeding and oviposition periods of corn rootworm adults in central Illinois. In both years, the sweet corn plot was adjacent to a 0.405-ha trap crop of C. maxima cultivar “Blue Hubbard”, to provide high densitites of SCR and WCR adults in the corn plots (Howe, et al., Environ. Entomol., 5:745-751 (1976), Lampman, et al., J. Chem. Ecol., 13:959-975 (1987).
(§3) Attraction of Diabrotica species to volatile compounds was measured by the average number of beetles cought during a 24-h period on 1.0-liter cylindrical paper cartons (15.2 cm high, 27.9 cm circumference) which were evenly coated with clear insect adhesive, TangleTrap™ (Tanglefood Co., Grand Rapids, Mich.) The candidate attractants were applied by capillary micropiettes to cotton dental wicks (13 mm long by 6 mm diameter) that were previously impregnated with mineral oil to prolong volatilization. The chemicals were purchased from Aldrich Chemical Co., (Milwaukee, Wis.) and assayed by gas chromatography as >97% pure. Indole, a solid at ambient temperatures (m.p. 52-54° C.), was dissolved in glass-distilled acetone before dosing the cotton wicks. For dosage-acticity tests, the various components were mixed in equal quantities by weight and diluted to the appropriate dosage with acetone. Treated and untreated (control) wicks were attached to the top of the paper cartons with TangleTrap™ and the inverted traps were placed on 1-m-high posts between the sweet corn rows. Four replicates of each treatment and a control were conducted in a randomized complete block desgin. The sticky traps within a block (ca. 50-m row of corn) were 5-10 m apart (depending on the number of treatments in a particular test) and the blocks were 3 m apart. The traps were baited and placed in the field between 1000 and 1300 hours and beetle counts were taken after 24 h. The significance of treatments was determined by analysis of variance and the individual means were separated by Duncan's multiple range test (Statistical Package for Social Sciences (SPSS) (Nie, et al., SPSS: statistical package for the social sciences, 2nd ed. McGraw-Hill, N.Y. (1975)). Student's t test was used for comparisons of two means (Sokal, et al., Biometry, Freeman, San Francisco (1969). Significance levels were set at P=0.05 at all statistical analyses.
(§4) The initial field test in August of the first year evaluated the response of SCR and WCR adults of a mixture of veratrole (V), indole (I), phenylacetaldehyde (P), trans-anethole (A), and eugenol (E) (=VIPAE mixture), as well as to the individual components. Each component in the VIPAE mixture was present at a dosage of 20 mg per trap and was compared with the individual components at 100 mg per trap. The response of SCR and WCR adults to a range of VIPAE doses, 1-300 mg, was conducted on the following day. Fifty SCR adults were removed from each 100-mg VIPAE trap, and returned to the laboratory for sex determination. Additional analyses in August evaluated the reduction in trap catches produced by the sequential removal of the individual components from the VIPAE lure. After the primary components of the initial lure were determined, a modified multicomponent lure consisting of veratrole, indole, and phenylacetaldehyde (=VIP mixture) was compared with its individual components to determine whether the attraction of SCR adults was the result of interactive or additive factors. The attraction and synergistic response of SCR adults of the VIP mixture was verified by tests conducted in August of the following year. […]

D. barberi = experiment: Sticky trap attraction in prairie habitat, Trelease Woods (Example 2); format: in vivo, Diabrotica barberi; details: 100 mg per trap, n = 4
Description: as §1

[2] = system: southern corn rootworm (SCR) adults; experiment: Sticky trap attraction in sweet corn plots (Example 1); format: in vivo, Diabrotica undecimpunctata howardi; details: August 4, second year, each compound 20 mg per trap
Description: as §2, §3, §4

D. u. howardi = experiment: Sticky trap attraction in prairie habitat, Trelease Woods (Example 2); format: in vivo, Diabrotica undecimpunctata howardi; details: 100 mg per trap, n = 4
Description: as §1

SCR = experiment: Limit of response rating of squash blossom volatiles on sticky traps (Example 5); format: in vivo, Diabrotica undecimpunctata howardi; details: 24 hour; four replicate traps; 0.01 mg to 200 mg
Description: (§5) Over 40 individual volatile chemicals have been isolated from Cucurbita maxima blossoms and circa 25 of these have been unequivocally identified (Andersen, J. F., J. Agric. Food Chem., 35:60-62 (1987): Andersen, J. F. and Metcalf, R. L., J. Chem. Ecol., 12:687-699 (1986)). The major odor components were evaluated as potential attractants for adult Diabrotica species using cylindrical sticky traps baited with dental cotton wicks (Metcalf, R. L., and Lampman, R. L., Paper submitted to J. Econ. Entomol., (1988)) containing from 0.01 mg to 200 mg of volatile compound.

WCR = experiment: as above; format: in vivo, Diabrotica virgifera virgifera; details: 24 hour; four replicate traps; 0.01 mg to 200 mg
Description: as §5

NCR = experiment: as above; format: in vivo, Diabrotica barberi; details: 24 hour; four replicate traps; 0.01 mg to 200 mg
Description: as §5

Row | Compound | Mean number of D. v. virgifera per sticky trap per day (±standard deviation) (D. v. virgifera; August 20, first year) | Mean number of D. u. howardi per sticky trap per day (±standard deviation) (D. u. howardi; August 20, first year) | Attractant Rating SCR (by limit of response) (SCR) | Attractant Rating WCR (by limit of response) (WCR) | Attractant Rating NCR (by limit of response) (NCR) | other results
1 | COc1ccccc1O [Guaiacol, 2-methoxyphenol] | 0 per sticky trap per day | 0.8 ± 1.0^a per sticky trap per day | – | – | – | Mean number of D. cristata per sticky trap per day (±standard deviation) (D. cristata; August 20, first year): 6.0 ± 2.6^b per sticky trap per day; relative percent activity (WCR) as compared with the highest mean value for the test date [1]: 39%; Mean number of WCR per trap (±standard deviation) ([1]; n = 4): 20.0 ± 8.9 per trap; Mean number of D. barberi per sticky trap per day (±standard deviation) (D. barberi; August 20, first year): 4.3 ± 2.1^b per sticky trap per day; relative percent activity (SCR) as compared with the highest mean value for the test date [2]: 2%; Mean number of SCR per trap (±standard deviation) ([2]; n = 4): 0.8 ± 0.6 per trap
2 | C=CCc1ccc2c(c1)OCO2 [Safrole] | 0 per sticky trap per day | 0.0^a per sticky trap per day | – | – | – | Mean number of D. cristata per sticky trap per day (±standard deviation) (D. cristata; August 20, first year): 1.3 ± 1.9^a per sticky trap per day; Mean number of D. barberi per sticky trap per day (±standard deviation) (D. barberi; August 20, first year): 0.25 ± 0.25^a per sticky trap per day
3 | OCc1ccccc1 [benzyl alcohol] | – | – | 0 (200) | 0 (200) | 0 (200) | –
4 | COc1ccc(OC)c(OC)c1 [1,2,4-trimethoxybenzene] | – | – | +1 (30-100) | +1 (30-100) | 0 (200) | –
5 | CCCCCCO [1-hexanol] | – | – | 0 (200) | 0 (200) | 0 (200) | –
6 | CC=Cc1ccc(O)c(OC)c1 [Isoeugenol] | 0 per sticky trap per day | 0.5 ± 1.0^a per sticky trap per day and 1.0 ± 0.8^a per sticky trap per day | – | – | – | Mean number of D. cristata per sticky trap per day (±standard deviation) (D. cristata; August 18, first year): 10.5 ± 12.6^b per sticky trap per day; Mean number of D. cristata per sticky trap per day (±standard deviation) (D. cristata; August 27, first year): 2.5 ± 1.7^b per sticky trap per day; Mean number of D. v. virgifera per sticky trap per day (±standard deviation) (D. v. virgifera; August 18, first year): 0.0^a per sticky trap per day; Mean number of D. v. virgifera per sticky trap per day (±standard deviation) (D. v. virgifera; August 27, first year): 0 per sticky trap per day; Mean number of D. barberi per sticky trap per day (±standard deviation) (D. barberi; August 18, first year): 31.8 ± 26.7^b per sticky trap per day; Mean number of D. barberi per sticky trap per day (±standard deviation) (D. barberi; August 27, first year): 8.5 ± 3.4^b per sticky trap per day; Mean number of D. u. howardi per sticky trap per day (±standard deviation) (D. u. howardi; August 18, first year): 0.0^a per sticky trap per day; Mean number of D. u. howardi per sticky trap per day (±standard deviation) (D. u. howardi; August 27, first year): 0.5 ± 1.0^a per sticky trap per day
7 | CCCCCC=O [1-hexanal] | – | – | 0 (200) | 0 (200) | 0 (200) | –
8 | C=CCc1ccc(OC)c(OC)c1 [Methyl eugenol] | 0 per sticky trap per day | 0.3 ± 0.5^a per sticky trap per day | – | – | – | Mean number of D. cristata per day (±standard deviation) (D. cristata; August 14, 1987): 4.5 ± 1.3^ab per day; Mean number of D. cristata per sticky trap per day (±standard deviation) (D. cristata; August 18, first year): 1.8 ± 1.5^a per sticky trap per day; Mean number of D. cristata per sticky trap per day (±standard deviation) (D. cristata; August 20, first year): 1.5 ± 1.7^a per sticky trap per day; Mean number of D. v. virgifera per day (±standard deviation) (D. v. virgifera; August 14, 1987): 0.0^a per day; Mean number of D. v. virgifera per sticky trap per day (±standard deviation) (D. v. virgifera; August 18, first year): 0.0^a per sticky trap per day; Mean number of D. barberi per day (±standard deviation) (D. barberi; August 14, 1987): 1.0 ± 1.4^a per day; Mean number of D. barberi per sticky trap per day (±standard deviation) (D. barberi; August 18, first year): 1.8 ± 1.7^a per sticky trap per day; Mean number of D. barberi per sticky trap per day (±standard deviation) (D. barberi; August 20, first year): 2.0 ± 1.4^ab per sticky trap per day; Mean number of D. u. howardi per day (±standard deviation) (D. u. howardi; August 14, 1987): 0.3 ± 0.5^a per day; Mean number of D. u. howardi per sticky trap per day (±standard deviation) (D. u. howardi; August 18, first year): 0.0^a per sticky trap per day
9 | COc1ccc(OC)cc1 [1,4-dimethoxybenzene] | – | – | 0 (200) | 0 (200) | 0 (200) | –
10 | CC/C=C\CCO [cis-3-hexenol] | – | – | 0 (200) | +1 (30-100) | 0 (200) | –
11 | COc1ccc(C=O)cc1 [p-methoxybenzaldehyde] | – | – | 0 (200) | 0 (200) | 0 (200) | –
12 | CCC/C=C/C=O [trans-2-hexenal] | – | – | 0 (200) | 0 (200) | 0 (200) | –
13 | C=CC(C)(O)CCC=C(C)CCC=C(C)C (stereo not shown) [nerolidol] | – | – | 0 (200) | 0 (200) | 0 (200) | –

— patent publication US6613317B1, “Volatile attractants for diabrotica species” (priority 1988, dated 2003)
